One experiment deals with IL-15Rα. As to the kind of experiment: IL-15Ralpha expression by flow cytometry. To be noted: OKT3 stimulated lymphocytes, FIG. 15. The format is cell-based, human. From the text:
In vitro, supraphysiologic levels of cytokine can engage intermediate and low affinity IL-15 receptors on lymphocytes lacking IL-15Rα. […] IL-15Rα was detected with a polyclonal, biotinylated antibody and biotinylated isotype-matched control antibody; cell surface-bound antibody was then labeled with streptavidin-PE (R&D Systems). PE was detected through flow cytometry.
In general terms: In flow cytometry, cells or beads pass a laser one at a time.

The test system of the next experiment is CTLL-2 cells. As to the kind of experiment: CTLL-2 proliferation assay (3H-thymidine). To be noted: Sup-T1 supernatants or control cytokine, 24 h. The format is cell-based, mouse. As to the method:
The CTLL-2 assay was used to determine whether IL-15 produced by transduced Sup-T1 cells was biologically active.
CTLL-2 cells were grown in culture for 4 days and then harvested and washed twice in PBS and then plated into a 96-well plate, 5×10^3 cells/well. The CTLL-2 cells were incubated in the absence of cytokines for 4 hours. Supernatants from the transduced Sup-T1 cells were then added to the culture in serial dilutions. […] The CTLL-2 cells were cultured for a total of 24 hours; during the final six hours ^3H-Thymidine was added to each well. The CTLL-2 cells were harvested to a filter and read on a β-counter.

Here are results for 1 substance from patent US7998736B2, “Adoptive immunotherapy with enhanced T lymphocyte survival” (The United States of America as represented by the …, priority 2004, dated 2011).

Take “IL-15: exogenous recombinant human IL-15 added to culture media”: the IL-15Rα staining result in the experiment with IL-15Rα was “did not manifest IL-15Rα staining”. Moreover, in the experiment with CTLL-2 cells, the “proliferation of CTLL-2” value is “did proliferate”.
